Consider 16 molecules from patent publication US9376442B2, “Methylpyrrolopyrimidinecarboxamides” (Takeda GmbH, priority 2009, dated 2016).

Experiment [1] deals with T1, PDE5A1 (Homo sapiens, UniProt O76074).
T1 construct: from tissue; host or cells: human platelets from fresh donor blood (10,000 x g supernatant of sonicated lysate)
The experiment is described as follows: Inhibition of type 5 phosphodiesterase (PDE5) activity, modified SPA test with human platelet lysate. The settings on record: 0.5 μM cGMP, read-out: PDE5A1 inhibitory values [measured as −log IC50 (mol/l)] (converted). In kind it is biochemical. Put shortly:
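Scintillation proximity assay with [3H]cGMP tracer at 0.5 μM total cGMP, stopped after 15 min with beads containing IBMX. PDE3 and PDE2 activities suppressed with motapizone (1 μM) and a PDE2 inhibitor (10 nM). Human platelet supernatant served as the enzyme, with compound preincubated 5 min at 37° C; IC50 values from concentration-effect curves.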

Experiment [2] addresses T2, PDE4B1 (Homo sapiens, UniProt Q07343).
T2 construct: made in house; host or cells: SF21 insect cells (baculovirus; pCRBac vector), 1000 x g supernatant of homogenate
The experiment in a line: Inhibition of type 4 phosphodiesterase (PDE4) activity, modified SPA test with recombinant PDE4B1 expressed in SF21 insect cells. In kind it is biochemical. As to conditions: recombinant PDE4B1, 0.5 μM cAMP, read-out: PDE4B1 inhibitory values [measured as −log IC50 (mol/l)] (converted). The procedure: Method for Measuring Inhibition of the Type 4 Phosphodiesterase (PDE4) Activity:
The PDE4B1 (GB no. L20966) was a gift of Prof. M. Conti (Stanford University, USA). It was amplified from the original plasmid (pCMV5) via PCR with primers Rb18 (5′-[…]-3′) and Rb10 (5′-[…]-3′) and cloned into the pCRBac vector (Invitrogen, Groningen, NL).
The recombinant baculovirus was prepared by means of homologous recombination in SF9 insect cells. The expression plasmids were cotransfected with Baculo-Gold DNA (Pharmingen, Hamburg) using a standard protocol (Pharmingen, Hamburg). Wt virus-free recombinant virus supernatants were selected using plaque assay methods. After that, high-titre virus supernatants were prepared by amplifying 3 times. PDE4B1 was expressed in SF21 cells by infecting 2×10^6 cells/ml with an MOI (multiplicity of infection) between 1 and 10 in the serum-free medium Insect Express Sf9-S2 (PAA, Pasching, Austria). The cells were cultured at 28° C. for 48-72 hours, after which they were pelleted for 5-10 min at 1000×g and 4° C.
The SF21 insect cells were resuspended, at a concentration of approx. 10^7 cells/ml, in ice-cold (4° C.) homogenization buffer (20 mM Tris, pH 8.2, containing the following additions: 140 mM NaCl, 3.8 mM KCl, 1 mM EGTA, 1 mM MgCl2, 10 mM (3-mercaptoethanol, 2 mM benzamidine, 0.4 mM Pefablock, 10 μM leupeptin, 10 μM pepstatin A, 5 μM trypsin inhibitor) and disrupted by ultrasonication. The homogenate was then centrifuged for 10 min at 1000×g and the supernatant was stored at −80° C. until subsequent use (see below). The protein content was determined by the Bradford method (BioRad, Munich) using BSA as the standard.
PDE4B1 activity was inhibited by the compounds according to the present subject matter in a modified SPA (scintillation proximity assay) test, supplied by Amersham Biosciences (see procedural instructions “phosphodiesterase [3H]cAMP SPA enzyme assay, code TRKQ 7090”), carried out in 96-well microtitre plates (MTP's). The test volume is 100 μl and contains 20 mM Tris buffer (pH 7.4), 0.1 mg/ml of BSA, 5 mM Mg^2+, 0.5 μM cAMP (including about 50,000 cpm of [3H]cAMP), 1 μl of the respective substance dilution in DMSO and sufficient recombinant PDE (1000×g supernatant, see above) to ensure that 10-20% of the cAMP is converted under the said experimental conditions. […] After a preincubation of 5 min at 37° C., the reaction is started by adding the substrate (cAMP) and the assays are incubated for a further 15 min; after that, they are stopped by adding SPA beads (50 μl). In accordance with the manufacturer's instructions, the SPA beads had previously been resuspended in water, but were then diluted 1:3 (v/v) in water; the diluted solution also contains 3 mM IBMX to ensure a complete PDE activity stop. After the beads have been sedimented (>30 min), the MTP's are analyzed in commercially available luminescence detection devices. The corresponding IC50 values of the compounds for the inhibition of PDE4B1 activity are determined from the concentration-effect curves by means of non-linear regression.

SMILES strings stand for the structures.

T2 sequence (Q07343 whole entry): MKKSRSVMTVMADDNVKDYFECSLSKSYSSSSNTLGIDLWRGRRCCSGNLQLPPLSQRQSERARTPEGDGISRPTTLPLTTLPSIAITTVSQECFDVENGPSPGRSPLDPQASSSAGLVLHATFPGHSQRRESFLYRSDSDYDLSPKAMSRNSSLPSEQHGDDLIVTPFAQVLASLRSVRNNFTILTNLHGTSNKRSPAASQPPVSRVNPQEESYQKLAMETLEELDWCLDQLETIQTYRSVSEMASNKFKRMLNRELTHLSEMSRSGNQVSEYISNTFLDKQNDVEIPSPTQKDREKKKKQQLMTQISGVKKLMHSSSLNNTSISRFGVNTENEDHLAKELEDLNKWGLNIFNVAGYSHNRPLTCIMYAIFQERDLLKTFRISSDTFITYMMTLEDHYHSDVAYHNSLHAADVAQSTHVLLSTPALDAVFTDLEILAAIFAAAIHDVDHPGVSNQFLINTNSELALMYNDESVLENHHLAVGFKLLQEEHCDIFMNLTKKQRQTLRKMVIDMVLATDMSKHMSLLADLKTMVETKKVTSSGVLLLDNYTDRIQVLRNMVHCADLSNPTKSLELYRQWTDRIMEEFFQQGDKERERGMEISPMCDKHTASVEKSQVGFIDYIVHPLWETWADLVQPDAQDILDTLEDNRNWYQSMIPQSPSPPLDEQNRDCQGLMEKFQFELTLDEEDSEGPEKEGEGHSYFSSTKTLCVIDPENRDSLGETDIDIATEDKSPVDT

Regarding `CCc1ccc(OCC2CC2)c(-c2ncnc3c(C(=O)N[C@@H]4CN(C(C)=O)C[C@H]4O)c(C)[nH]c23)c1` (relative stereo) [Example E154, N-[(3R*,4R*)-1-Acetyl-4-hydroxypyrrolidin-3-yl]-4-[2-(cyclopropylmethoxy)-5-ethylphenyl]-6-methyl-5H-pyrrolo[3,2-d]pyrimidine-7-carboxamide], the IC50 in experiment [1] was 0.001 to 0.01 µM; in experiment [2], 0.1 to 1 µM.
`CCC(=O)N1C[C@@H](O)[C@H](NC(=O)c2c(C)[nH]c3c(-c4cc(CC)ccc4OCC4CC4)ncnc23)C1` (relative stereo) [Example E155, 4-[2-(Cyclopropylmethoxy)-5-ethylphenyl]-N-[(3R*,4R*)-4-hydroxy-1-propanoylpyrrolidin-3-yl]-6-methyl-5H-pyrrolo[3,2-d]pyrimidine-7-carboxamide]: the IC50 in experiment [1] was < 0.001 µM; in experiment [2], 0.1 to 1 µM.
For `CCc1ccc(OCC2CC2)c(-c2ncnc3c(C(=O)N[C@@H]4CN(C(=O)COC)C[C@H]4O)c(C)[nH]c23)c1` (relative stereo) [Example E156, 4-[2-(Cyclopropylmethoxy)-5-ethylphenyl]-N-[(3R*,4R*)-4-hydroxy-1-(methoxyacetyl)pyrrolidin-3-yl]-6-methyl-5H-pyrrolo[3,2-d]pyrimidine-7-carboxamide] the same measures were 0.001 to 0.01 µM and 0.1 to 1 µM.
Take `CCc1ccc(OCC2CC2)c(-c2ncnc3c(C(=O)N[C@@H]4CN(C(=O)CO)C[C@H]4O)c(C)[nH]c23)c1` (relative stereo) [Example F97, 4-[2-(Cyclopropylmethoxy)-5-ethylphenyl]-N-[(3R*,4R*)-4-hydroxy-1-(hydroxyacetyl)pyrrolidin-3-yl]-6-methyl-5H-pyrrolo[3,2-d]pyrimidine-7-carboxamide]: the IC50 was 0.001 to 0.01 µM in experiment [1] and 0.1 to 1 µM in experiment [2].
Take `CC(=O)N[C@H]1C[C@@H](F)[C@H](NC(=O)c2c(C)[nH]c3c(-c4cc(C(F)F)ccc4OCC4CC4)ncnc23)C1` (relative stereo) [Example P99, N-[(1R*,2R*,4R*)-4-(Acetylamino)-2-fluorocyclopentyl]-4-[2-(cyclopropylmethoxy)-5-(difluoromethyl)phenyl]-6-methyl-5H-pyrrolo[3,2-d]pyrimidine-7-carboxamide]: the IC50 in experiment [2] is < 0.1 µM.
As to `CCC(=O)N[C@H]1C[C@@H](F)[C@H](NC(=O)c2c(C)[nH]c3c(-c4cc(C(F)F)ccc4OCC4CC4)ncnc23)C1` (relative stereo) [Example P100, 4-[2-(Cyclopropylmethoxy)-5-(difluoromethyl)phenyl]-N-[(1R*,2R*,4R*)-2-fluoro-4-(propanoylamino)cyclopentyl]-6-methyl-5H-pyrrolo[3,2-d]pyrimidine-7-carboxamide], in experiment [2], the IC50 was < 0.1 µM.
Same read-out and setting: as for `COCC(=O)N[C@H]1C[C@@H](F)[C@H](NC(=O)c2c(C)[nH]c3c(-c4cc(C(F)F)ccc4OCC4CC4)ncnc23)C1` (relative stereo) [Example P101, 4-[2-(Cyclopropylmethoxy)-5-(difluoromethyl)phenyl]-N-{(1R*,2R*,4R*)-2-fluoro-4-[(methoxyacetyl)amino]cyclopentyl}-6-methyl-5H-pyrrolo[3,2-d]pyrimidine-7-carboxamide], the figure is < 0.1 µM.
Consider `CC(=O)N[C@H]1CC[C@H](NC(=O)c2c(C)[nH]c3c(-c4cc(C(F)F)ccc4OCC4CC4)ncnc23)[C@@H](C)C1` (relative stereo) [Example P139, N-[(1S*,2S*,4S*)-4-(Acetylamino)-2-methylcyclohexyl]-4-[2-(cyclopropylmethoxy)-5-(difluoromethyl)phenyl]-6-methyl-5H-pyrrolo[3,2-d]pyrimidine-7-carboxamide], for which the IC50 in experiment [1] is < 0.001 µM; in experiment [2], < 0.1 µM.
`CCC(=O)N[C@H]1CC[C@H](NC(=O)c2c(C)[nH]c3c(-c4cc(C(F)F)ccc4OCC4CC4)ncnc23)[C@@H](C)C1` (relative stereo) [Example P140, 4-[2-(Cyclopropylmethoxy)-5-(difluoromethyl)phenyl]-6-methyl-N-[(1S*,2S*,4S*)-2-methyl-4-(propanoylamino)cyclohexyl]-5H-pyrrolo[3,2-d]pyrimidine-7-carboxamide]: the figures for the IC50 in experiment [1] and in experiment [2] were < 0.001 µM and < 0.1 µM, respectively.
`COCC(=O)N[C@H]1CC[C@H](NC(=O)c2c(C)[nH]c3c(-c4cc(C(F)F)ccc4OCC4CC4)ncnc23)[C@@H](C)C1` (relative stereo) [Example P141, 4-[2-(Cyclopropylmethoxy)-5-(difluoromethyl)phenyl]-N-{(1S*,2S*,4S*)-4-[(methoxyacetyl)amino]-2-methylcyclohexyl}-6-methyl-5H-pyrrolo[3,2-d]pyrimidine-7-carboxamide]: the IC50 is < 0.001 µM in experiment [1] and < 0.1 µM in experiment [2].
For `CC(=O)N[C@@H]1CC[C@@H](NC(=O)c2c(C)[nH]c3c(-c4cc(C(F)F)ccc4OCC4CC4)ncnc23)[C@H](F)C1` (relative stereo) [Example P159, N-[(1R*,2R*,4R*)-4-(Acetylamino)-2-fluorocyclohexyl]-4-[2-(cyclopropylmethoxy)-5-(difluoromethyl)phenyl]-6-methyl-5H-pyrrolo[3,2-d]pyrimidine-7-carboxamide], the IC50 in experiment [1] was < 0.001 µM; in experiment [2], < 0.1 µM.
The like results for `CCC(=O)N[C@@H]1CC[C@@H](NC(=O)c2c(C)[nH]c3c(-c4cc(C(F)F)ccc4OCC4CC4)ncnc23)[C@H](F)C1` (relative stereo) [Example P160, 4-[2-(Cyclopropylmethoxy)-5-(difluoromethyl)phenyl]-N-[(1R*,2R*,4R*)-2-fluoro-4-(propanoylamino)cyclohexyl]-6-methyl-5H-pyrrolo[3,2-d]pyrimidine-7-carboxamide] were, in that order, < 0.001 µM and < 0.1 µM.
For the molecule `COCC(=O)N[C@@H]1CC[C@@H](NC(=O)c2c(C)[nH]c3c(-c4cc(C(F)F)ccc4OCC4CC4)ncnc23)[C@H](F)C1` (relative stereo) [Example P161, 4-[2-(Cyclopropylmethoxy)-5-(difluoromethyl)phenyl]-N-{(1R*,2R*,4R*)-2-fluoro-4-[(methoxyacetyl)amino]cyclohexyl}-6-methyl-5H-pyrrolo[3,2-d]pyrimidine-7-carboxamide], the results for the IC50 in experiment [1] and in experiment [2] were < 0.001 µM and < 0.1 µM, respectively.
On to `COc1cc(-c2ncnc3c(C(=O)N[C@@H]4CCN(C(=O)[C@H](C)O)C4)c(C)[nH]c23)c(OCC2CC2)cc1F` [Example F112, 4-[2-(Cyclopropylmethoxy)-4-fluoro-5-methoxyphenyl]-N-{(3R)-1-[(2S)-2-hydroxypropanoyl]pyrrolidin-3-yl}-6-methyl-5H-pyrrolo[3,2-d]pyrimidine-7-carboxamide], for which the IC50 in experiment [1] was < 0.001 µM.
Take `COc1cc(OCC2CC2)c(-c2ncnc3c(C(=O)N[C@@H]4CCN(C(=O)CO)C4)c(C)[nH]c23)cc1F` [Example F115, 4-[2-(Cyclopropylmethoxy)-5-fluoro-4-methoxyphenyl]-N-[(3R)-1-glycoloylpyrrolidin-3-yl]-6-methyl-5H-pyrrolo[3,2-d]pyrimidine-7-carboxamide]: the IC50 in experiment [1] was < 0.001 µM.
For `COc1cc(OCC2CC2)c(-c2ncnc3c(C(=O)N[C@@H]4CCN(C(=O)[C@H](C)O)C4)c(C)[nH]c23)cc1F` [Example F116, 4-[2-(Cyclopropylmethoxy)-5-fluoro-4-methoxyphenyl]-N-{(3R)-1-[(2S)-2-hydroxypropanoyl]pyrrolidin-3-yl}-6-methyl-5H-pyrrolo[3,2-d]pyrimidine-7-carboxamide], in experiment [1], the IC50 is < 0.001 µM.
